Test results: US20250134102A1, “USE OF FLAVONOID GLYCOSIDE IN RESISTANCE OF WEEDS IN RICE” (INSTITUTE OF BOTANY, THE CHINESE ACADEMY OF SCIENCE, priority 2021, published 2025)

How the values were obtained:
[1] = test system: Os02g0589400 recombinant protein; assay: In vitro enzymatic activity of Os02g0589400 (glycosylation of isoorientin with UDPG, UPLC-QTOF/MS); type: biochemical, Oryza sativa L. ssp. japonica cv. Zhonghua 11 (ZH11); conditions: glycosyl donor UDPG, Tris-HCl pH 7.0, 30° C., 1 hour
Method: The enzymatic activity reaction system was: 38 μL of Tris-HCl (pH 7.0, 50 mM, containing 10 mM DTT), 1 μL of 10 mM glycosyl receptor (the glycosyl receptor of Os02g0589400 is isoorientin), 1 μL of 100 mM glycosyl donor (UDPG), and 10 μL of 2.03 μg/μL of recombinant protein of Os02g0589400 obtained in (2). React in water bath at 30° C. for 1 hour, and then stop the reaction with equal volume of methanol. A sample containing protein obtained from E. coli into which a pMAL-c2X mock vector was transferred according to the above step (2) was taken as the negative control. Centrifuge at 12,000 rpm, 4° C. for 10 min, 30 μL of the resulting supernatant was taken and measured by UPLC-QTOF/MS, and the measuring method was the same as that shown in Example 1.

[2] = test system: Echinochloa crus-galli; assay: External application of the compound to Echinochloa crus-galli seeds on agar medium, radicle and embryo length; type: in vivo; conditions: 500 mg/L in 0.8% agar, 28° C., 3 days in the dark, 3 biological repeats
Method: I. Procedures for External Application of the Compound to Lettuce and Echinochloa crus-galli Compounds to be tested: isoorientin and isoorientin-2″-O-glucopyranoside. (1) The compounds to be tested were dried into powder with a centrifugal concentrator and weighed, a proper amount of sterile water was added to make its final concentration to be 10 mg/mL. (2) 500 mL of 0.8% agar was prepared and sterilized in an autoclave. […] solution of the compounds to be tested at a concentration of 10 mg/mL were added to make the final concentration of the compounds to be 500 mg/L. The medium containing the compound to be tested was quickly poured into a 10 cm×10 cm square dish, and the square dish was shaken quickly so that the medium was evenly spread in the square dish. The medium added with equal amount of sterile water was used as control. (4) The seeds of Echinochloa crus-galli were washed with distilled water for several times, and then placed on sterile filter paper to dry. (5) After the medium had solidified, the seeds of Echinochloa crus-galli were placed with sterile tweezers on the medium, and 26 seeds were placed in each petri dish (2 rows, with 13 seeds in each row). Each treatment had 3 biological repeats. (6) The petri dishes were placed in an incubator at 28° C. for 3 days in the dark. (7) Phenotypic statistics: after 3 days, the length of radicle and embryo of each treated material were counted.

Row | SMILES | glycosylation of the glycosyl receptor by Os02g0589400 recombinant protein compared with the mock control [1] | embryo length of Echinochloa crus-galli compared with the control [2] | radicle length of Echinochloa crus-galli compared with the control [2]
1 | O=c1cc(-c2ccc(O)c(O)c2)oc2cc(O)c([C@@H]3O[C@H](CO)[C@@H](O)[C@H](O)[C@H]3O)c(O)c12 [isoorientin] | could catalyze isoorientin to produce isoorientin-2″-O-glucopyranoside | no significant difference | significantly shortened
2 | O=c1cc(-c2ccc(O)c(O)c2)oc2cc(O)c([C@@H]3O[C@H](CO)[C@@H](O)[C@H](O)[C@H]3O[C@@H]3O[C@H](CO)[C@@H](O)[C@H](O)[C@H]3O)c(O)c12 [isoorientin-2″-O-glucopyranoside] | – | no significant difference | no significant difference
